Reference: patent publication US10584350B2, “Structurally modified COI1” (Board of Trustees of Michigan State University, priority 2016, dated 2020)
Where a chain is given by its changes, count along the chain named. In names and notes the source's numbering stands. Entries after “also recorded” stand apart in the source; their conditions may differ.

B1: R496A: COI1 alanine substitution mutant at R496 (protein)
chain: MEDPDIKRCKLSCVATVDDVIEQVMTYITDPKDRDSASLVCRRWFKIDSETREHVTMALCYTATPDRLSRRFPNLRSLKLKGKPRAAMFNLIPENWGGYVTPWVTEISNNLRQLKSVHFRRMIVSDLDLDRLAKARADDLETLKLDKCSGFTTDGLLSIVTHCRKIKTLLMEESSFSEKDGKWLHELAQHNTSLEVLNFYMTEFAKISPKDLETIARNCRSLVSVKVGDFEILELVGFFKAAANLEEFCGGSLNEDIGMPEKYMNLVFPRKLCRLGLSYMGPNEMPILFPFAAQIRKLDLLYALLETEDHCTLIQKCPNLEVLETRNVIGDRGLEVLAQYCKQLKRLRIERGADEQGMEDEEGLVSQRGLIALAQGCQELEYMAVYVSDITNESLESIGTYLKNLCDFRLVLLDREERITDLPLDNGVRSLLIGCKKLRRFAFYLRQGGLTDLGLSYIGQYSPNVRWMLLGYVGESDEGLMEFSRGCPNLQKLEMAGCCFSERAIAAAVTKLPSLRYLWVQGYRASMTGQDLMQMARPYWNIELIPSRRVPEVNQQGEIREMEHPAHILAYYSLAGQRTDCPTTVRVLKEPI
B2: COI1A384V: modified Arabidopsis thaliana COI1 protein with valine at position 384 (SEQ ID NO:2); also names transgenic plants expressing it (protein, listed as Arabidopsis thaliana)
chain: B1 chain with A384V, A496R

Columns and labels:
PR1 gene expression = test: qPCR of SA-responsive gene PR1; assay type: in vivo, Arabidopsis; conditions: plants expressing the protein
Procedure: (§1) Col-0 and transgenic seeds were germinated on half-strength MS medium. Five-day-old seedlings were transferred into liquid half-strength MS medium. Segregating coil-30 seeds were germinated on half-strength MS medium with 10 μM MeJA. and MeJA-resistant 5-d-old seedlings were transferred into liquid half-strength MS medium. Next, 10 μM MeJA (Sigma), 0.2 μM COR or 0.1% DMSO were applied to 12-d-old seedlings. Samples were collected after 3 h and total RNA was extracted using Qiagen RNeasy Mini kit (Qiagen). M-MLV Reverse transcriptase (Life Technologies) and SYBR Green master mix (Life Technologies) were used for reverse-transcription and real-time PCR. Primers used were: […]

Spodoptera exigua = test: Insect feeding assays; assay type: in vivo; conditions: for average weight of larvae feeding on COI1-30 plants higher than larvae reared on these plants: S. exigua neonate larvae
Procedure: Insect bioassays were performed as described by Herde et al. (Methods Mol Biol 1011:51-61 (2013)). Briefly, eggs of Spodoptera exigua were obtained from Benzon Research, and four neonate Spodoptera exigua larvae were transferred to the center of each 6-wk-old Arabidopsis host plant. Plants were grown under 8-hour light (100 μE·m^2·s) and 16-h dark and covered with cup cages. Larval weights were determined after 9-12 days of feeding.

SID2 gene expression = test: qPCR of SA-responsive gene SID2; assay type: in vivo, Arabidopsis; conditions: plants expressing the protein
Procedure: as §1

Pst DC3000 = test: Bacterial infection assay, dip-inoculation; assay type: in vivo, Pseudomonas syringae pv tomato; conditions: 3 days after dip-inoculation
Procedure: (§2) The Pseudomonas syringae infection assays in Arabidopsis were performed as described by Yao et al. (Methods Mol Biol 1011:63-81 (2013)). In brief, 4- to 5-wk-old (12-h light/12-h dark) Arabidopsis plants were dip-inoculated with bacterial suspension (1×10^8 cfu/mL Pst DC3000 or Psm ES4326 in 0.25 mM MgCl2 solution with 0.025% Silwet-77) or syringe-infiltrated with bacterial suspension (1×10^6 cfu/mL Pst DC3118 or DB29 in 0.25 mM MgCl2 solution). Bacterial growth was determined by serial dilutions of plant extracts 3 or 4 days after inoculation. Homozygous COI1-30 plants were selected by genotyping before bacterial infection.

JAZ9 gene expression = test: qPCR of JA-responsive marker gene JAZ9; assay type: in vivo, Arabidopsis; conditions: 10 μM MeJA or 0.2 μM COR, 3 h; for induction of JAZ9 expression compared with that in COI1-30 plants: COI1A384V L1 line; for JAZ9 gene expression in response to treatment compared with Col-0 or COI1WT plants: COI1A384V lines; for JAZ9 gene expression after application: Col-0 and COI1WT plants
Procedure: as §1

COI1-JAZ9 interaction [1] = conditions: Y2H; Thines et al., Melotto et al.; cited from earlier work
root growth = test: Root growth inhibition assays; assay type: in vivo, Arabidopsis; conditions: for concentrations of comparable potency in inhibiting root growth: COI1A384V plants; for concentrations with equivalent effect on root growth inhibition: wild-type Col-0 plants; for sensitivity of plants to COR vs MeJA: root growth inhibition, 0.2 μM COR vs 10 μM MeJA, in vivo
Procedure: Col-0, segregating COI1-30, transgenic COI1WT, and COI1A384V seeds were surface-sterilized, cold-stratified, and germinated on half-strength MS agar media containing MeJA, COR, or DMSO at the indicated concentrations. Seedlings were grown under long-day light conditions (16-h light at 100 μE·m^2·s, and 8-h dark) for 10-12 days before scanning images of roots. Root lengths were measured using ImageJ software (see website at rsbweb.nih.gov/ij/).

[2] = tested on: COI1WT/A384V-JAZ9 co-receptor; test: Coreceptor pull-down assay; assay type: binding, Arabidopsis; conditions: plant-expressed COI1, E. coli-expressed JAZ9
Procedure: Pull-down assays were performed with protein extracts from 4-mg pCOI1:COI1WT/A384V-4×c-Myc plants and 25 μg recombinant MBP-JAZ9-8×His. Assays were performed in the presence of JA-Ile or COR at various concentrations and incubated for 30 min at 4° C. in the binding buffer (Katsir et al., Proc Natl Acad Sci USA 105(19):7100-7105 (2008)). Eighty microliters of Ni resin (Invitrogen) were added, followed by an additional 15-min incubation period at 4° C. MBP-JAZ9-8×Hisbound Ni resin was washed three times on microcentrifuge spin columns with 0.25 mL binding buffer at 4° C. MBP-JAZ9-8×His was eluted from the resin with 100 μL of 300 mM imidazole. Proteins bound to MBP-JAZ9-8×His were analyzed by immunoblotting for the presence of COI1WT/A384V-4×c-Myc using anti-cMyc antibody. MBP-JAZ9-8×His recovered by the Ni affinity resin was detected by Coomassie blue staining.

COI1-JAZ9 interaction [3] = test: Quantitative liquid Y2H assays (Beta-Glo, RLU); assay type: cell-based, Arabidopsis; conditions: yeast
Procedure: Yeast EGY48 strain carrying the p8Op:LacZ reporter plasmid was co-transformed with pGilda:COI1 (or COI1 mutants) and pB42AD:JAZ9 (or other JAZs) (Clontech). Colonies were selected on SD minimal plates (BD Biosciences) supplemented with the—uracil (U)/-tryptophan (W)/-histidine (H) amino acid drop out solution (Clontech). Yeast colonies were cultured overnight in liquid SD-UWH medium, harvested, washed twice in sterile water, and the absorbance (OD600) of the cultures was adjusted to 0.2 in liquid SD galactose/raffinose-UWH medium (BD Biosciences).
For liquid Y2H assays, cultures were supplemented with designated concentrations of JA-Ile (10 or 30 μM), COR (1 μM), or DMSO. After 16-h incubation with ligands, the liquid cultures were processed through the Beta-Glo Assay system (Promega) for detecting the β-galactosidase activity. […] Protein expression in yeast was detected using anti-LexA antibody (1:5,000; Upstate Biotechnology) for detection of COI1 expression from pGilda vector and anti-HA (1:5,000; Roche Life Science) antibody for detection of JAZ9 expression in pB42AD vector.

COI1-JAZ9 interaction [4] = test: Y2H assays on plates for protein-protein interaction; assay type: cell-based, Arabidopsis; conditions: 10 μM COR, yeast
Psm ES4326 = test: Bacterial infection assay, dip-inoculation; assay type: in vivo, Pseudomonas syringae pv maculicola; conditions: 3 days after dip-inoculation
Procedure: as §2

Molecule | expression of PR1 gene (PR1 gene expression) | average weight of larvae feeding on COI1-30 plants higher than larvae reared on these plants (Spodoptera exigua) | expression of SID2 gene (SID2 gene expression) | resistance / susceptibility to Pst DC3000 (bacterial growth and disease symptoms) (Pst DC3000) | induction of JAZ9 expression compared with that in COI1-30 plants (JAZ9 gene expression) | JAZ9 gene expression in response to treatment compared with Col-0 or COI1WT plants (JAZ9 gene expression) | JAZ9 gene expression after application (JAZ9 gene expression) | activity in yeast (COI1-JAZ9 interaction [1]) | concentrations of comparable potency in inhibiting root growth (root growth) | concentrations with equivalent effect on root growth inhibition (root growth) | differential effect on JA-Ile-dependent vs COR-dependent COI1-JAZ9 interaction (COI1-JAZ9 interaction [3]; liquid Y2H) | also measured
COI1WT: wild type COI1 (SEQ ID NO:1) expressed in COI1-30-null background; control transgenic lines | similarly low | six-fold | similarly low | highly susceptible | – | – | – | – | – | – | – | weight of larvae compared with Col-0 (Spodoptera exigua; 12-day-old larvae, one-way ANOVA with Dunnett test): No significant difference
CC/C=C\CC1C(=O)CCC1CC(=O)OC (stereo not drawn) [MeJA, methyl jasmonate] | – | – | – | – | 38 fold | less affected | induced | not active | 100 nM | 10 µM | – | –
CC[C@H]1C=C(C(=O)N[C@@]2(C(=O)O)C[C@H]2CC)[C@H]2CCC(=O)[C@H]2C1 [COR, coronatine] | – | – | – | – | eight-fold | significantly reduced | induced | – | 200 nM | 0.2 µM | – | higher concentration required for robust formation of the COI1A384V-JAZ9 co-receptor than for the COI1WT-JAZ9 co-receptor [2]: ~100 fold; concentrations equivalent in promoting the COI1-JAZ9 interaction (COI1-JAZ9 interaction [3]; JA-Ile is a mixture of active and inactive isomers, COR pure): 0.1 µM; less effective in COI A384V than in Col-0 and COI1WT (root growth inhibition) (root growth; 0.2 μM COR): about 100 fold
CC/C=C\C[C@H]1C(=O)CC[C@@H]1CC(=O)O [JA, jasmonic acid] | – | – | – | – | – | – | – | not active | – | – | – | –
B1 | – | – | – | – | – | – | – | – | – | – | affect JAIle-dependent interaction more than COR-dependent interaction | COR-dependent COI1-JAZ9 interaction (COI1-JAZ9 interaction [4]): reduced
B2 | similarly low | five-fold | similarly low | significantly increased resistance | – | – | – | – | – | – | preferably affects COR-dependent COI1-JAZ9 interaction | resistance to Psm ES4326 compared with Col-0 or COI1WT plants (Psm ES4326): significantly increased resistance; COR-dependent COI1-JAZ9 interaction (COI1-JAZ9 interaction [3]; liquid Y2H, 1 μM COR): greatly reduced; JA-Ile-dependent COI1-JAZ9 interaction (COI1-JAZ9 interaction [3]; liquid Y2H, 10 or 30 μM JA-Ile): less effect; level of defense against S. exigua (Spodoptera exigua; in vivo): almost wild-type levels; sensitivity of plants to COR vs MeJA (root growth): significantly less sensitive; also recorded: differentially sensitive; sensitivity of plants to COR vs MeJA (root growth; listed as COI A384V): more sensitive
